In patent US6245817A, “NPY5 receptor antagonists and methods for using same” (Bayer Corporation, priority 1999, dated 2001) one finds IC50 and inhibition data, which are given here for 20 compounds.

One experiment has as its target T1, Human NPY5 Receptor (Homo sapiens, UniProt Q15761).
T1 sequence (Q15761 1-445): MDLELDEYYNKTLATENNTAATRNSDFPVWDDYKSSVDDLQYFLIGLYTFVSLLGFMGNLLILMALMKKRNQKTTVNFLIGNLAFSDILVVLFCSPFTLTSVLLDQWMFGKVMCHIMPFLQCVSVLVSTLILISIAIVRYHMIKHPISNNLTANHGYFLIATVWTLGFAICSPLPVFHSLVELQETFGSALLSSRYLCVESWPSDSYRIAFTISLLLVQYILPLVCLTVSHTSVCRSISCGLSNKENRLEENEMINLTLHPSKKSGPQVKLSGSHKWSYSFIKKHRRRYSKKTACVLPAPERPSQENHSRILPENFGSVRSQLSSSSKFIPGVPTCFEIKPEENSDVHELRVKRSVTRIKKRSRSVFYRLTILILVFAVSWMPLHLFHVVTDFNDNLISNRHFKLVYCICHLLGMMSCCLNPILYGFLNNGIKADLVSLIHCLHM
As to the kind of experiment: Human NPY5 Receptor Binding Assay. The settings on record: [125I]PYY; read-out: hNPY5 IC50.

Another experiment addresses T2, Rat NPY5 Receptor (Rattus norvegicus, UniProt Q63634).
T2 sequence (Q63634 1-445): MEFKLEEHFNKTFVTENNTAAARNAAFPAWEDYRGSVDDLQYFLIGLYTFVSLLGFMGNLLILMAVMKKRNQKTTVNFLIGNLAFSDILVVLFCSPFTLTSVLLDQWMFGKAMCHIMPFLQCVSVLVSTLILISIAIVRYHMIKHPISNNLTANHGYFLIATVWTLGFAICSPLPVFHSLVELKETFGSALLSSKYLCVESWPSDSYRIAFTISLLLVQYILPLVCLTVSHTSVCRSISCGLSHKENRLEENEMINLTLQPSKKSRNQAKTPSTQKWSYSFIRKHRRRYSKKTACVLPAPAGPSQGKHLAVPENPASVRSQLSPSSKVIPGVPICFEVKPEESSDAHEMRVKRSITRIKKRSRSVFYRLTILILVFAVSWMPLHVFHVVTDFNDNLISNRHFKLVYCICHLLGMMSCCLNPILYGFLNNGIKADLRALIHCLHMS
The experiment is described as follows: Rat NPY5 Receptor Binding Assay. Conditions: for IC50: [125I]PYY, read-out: rNPY5 IC50; for inhibition at 10 µM: values marked *, read-out: rNPY5 percent inhibition at 10 μM.

The next experiment deals with T3, Human NPY1 Receptor (Homo sapiens, UniProt P25929).
T3 sequence (P25929 1-384): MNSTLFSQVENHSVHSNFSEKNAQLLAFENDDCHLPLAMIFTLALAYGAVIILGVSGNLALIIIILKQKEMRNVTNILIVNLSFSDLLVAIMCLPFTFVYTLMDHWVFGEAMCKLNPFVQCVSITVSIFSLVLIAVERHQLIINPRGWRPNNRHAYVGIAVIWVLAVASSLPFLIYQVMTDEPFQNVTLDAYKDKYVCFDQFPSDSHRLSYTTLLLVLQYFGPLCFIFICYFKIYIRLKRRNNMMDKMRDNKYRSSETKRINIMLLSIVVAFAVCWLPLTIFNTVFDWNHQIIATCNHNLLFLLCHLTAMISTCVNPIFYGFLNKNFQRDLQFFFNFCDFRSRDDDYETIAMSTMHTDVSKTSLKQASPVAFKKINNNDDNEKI
The experiment is described as follows: Human NPY1 Receptor Binding Assay. The settings on record: SK-N-MC cells, [125I]PYY; read-out: hNPY1 IC50.

For the next experiment, the target named is Human NPY4/PP1 receptor (Homo sapiens, UniProt P50391). The experiment is described as follows: Human NPY4/PP1 Receptor Binding Assay. The settings on record: [125I]human PP; read-out: hNPY4 IC50.
The target of a further experiment is T4, Human NPY2 receptor (Homo sapiens, UniProt P49146).
T4 sequence (P49146 1-381): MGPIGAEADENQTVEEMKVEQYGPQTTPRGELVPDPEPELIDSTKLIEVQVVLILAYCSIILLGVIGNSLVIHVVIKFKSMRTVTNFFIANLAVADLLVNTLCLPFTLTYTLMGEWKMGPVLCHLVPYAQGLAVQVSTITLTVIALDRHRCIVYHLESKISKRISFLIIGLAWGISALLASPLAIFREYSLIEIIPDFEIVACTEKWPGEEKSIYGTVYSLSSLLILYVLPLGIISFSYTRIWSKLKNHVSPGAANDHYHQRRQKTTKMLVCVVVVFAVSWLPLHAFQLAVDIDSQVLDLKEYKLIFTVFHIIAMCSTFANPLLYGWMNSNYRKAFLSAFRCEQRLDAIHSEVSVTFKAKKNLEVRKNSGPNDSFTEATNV
The experiment is described as follows: Human NPY2 Receptor Binding Assay. The settings on record: [125I]PYY; read-out: hPPY2 IC50.

Counter-ions that a name gives are not always drawn.

Human NPY4/PP1 receptor, sequence (P50391 whole entry): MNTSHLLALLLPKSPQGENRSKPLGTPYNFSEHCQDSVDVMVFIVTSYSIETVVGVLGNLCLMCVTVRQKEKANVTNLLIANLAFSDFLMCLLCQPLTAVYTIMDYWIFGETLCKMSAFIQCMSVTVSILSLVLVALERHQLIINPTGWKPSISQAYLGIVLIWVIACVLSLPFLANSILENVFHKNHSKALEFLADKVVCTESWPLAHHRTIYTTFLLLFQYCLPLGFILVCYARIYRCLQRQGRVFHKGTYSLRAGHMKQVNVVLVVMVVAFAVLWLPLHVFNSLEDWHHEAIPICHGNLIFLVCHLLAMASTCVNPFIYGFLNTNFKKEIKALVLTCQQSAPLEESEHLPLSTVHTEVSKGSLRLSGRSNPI
Method for Human NPY2 receptor: Binding assays were performed on GF/C Millipore 96-well plates pretreated with 0.02% polyethylenimine. The binding buffer for rat Y2 binding is Krebs-Ringer bicarbonate (pH 7.4) containing 0.01% BSA and 0.005% bacitracin. Samples consist of membrane protein, 25 pM [125I]PYY and drug dilution. Nonspecific binding is defined by 1 μpM NPY.
After a 2 hour incubation at room temperature with constant mixing, the samples are aspirated on a vacuum manifold, and rinsed with ice-cold binding buffer. The amount of radioactivity in each well is quantitated with either gamma counting or liquid scintillation.

A word on the IC50: it is the concentration needed to halve the response being measured. As for `COC(Cn1c(SCC(=O)Nc2ccc(Cl)cc2)nnc1-c1ccc(Cl)cc1)OC` [Compound 161, N-(4-Chloro-phenyl)-2-[5-(4-chloro-phenyl)-4-(2,2-dimethoxy-ethyl)-4H-[1,2,4]triazol-3-ylsulfanyl]-ecetamide, reference compound], the IC50 is > 10 µM on Human NPY5 Receptor, > 10 µM on Rat NPY5 Receptor, > 5 µM at Human NPY1 Receptor and > 5 µM on Human NPY4/PP1 receptor.

For the compound `CCCCCCCCCCCc1nnc(SCC(=O)Nc2ccc(Cl)cc2)n1-c1ccccc1C(F)(F)F` [Compound 178, N-(A-Chloro-phenyl)-2-[4-(2-trifluoromethyl-phenyl)-5-undecyl-4H-[1,2,4]triazol-3-ylsulfanyl]-acetamide, reference compound], the IC50 at Human NPY2 receptor is > 5 µM; at Human NPY5 Receptor it was > 10 µM; on Human NPY4/PP1 receptor it was > 5 µM.

Broadly, the inhibition is the share of the control response that was lost under treatment. For `O=C(CSc1nc(-c2ccccc2)c(-c2ccccc2)[nH]1)Nc1ccc(C(=O)c2ccccc2)cc1` [Compound 16, N-(4-Benzoyl-phenyl)-2-(4,5-diphenyl-1H-imidazol-2-ylsulfanyl)-acetamide], the half-maximal inhibitory concentration (IC50) is > 5 µM at Human NPY2 receptor and 3.6 µM at Human NPY5 Receptor. The inhibition at 10 µM on Rat NPY5 Receptor worked out at 80%.

With `Cn1cnnc1SCC(=O)Nc1ccc(F)cc1` [Compound 170, N-(4-Fluoro-phenyl)-2-(4-methyl-4H-[1,2,4]triazol-3-ylsulfanyl)-acetamide, reference compound], the IC50 was > 10 µM on Human NPY5 Receptor, > 10 µM on Rat NPY5 Receptor, > 5 µM on Human NPY1 Receptor and > 5 µM on Human NPY4/PP1 receptor.

Regarding `Cn1cnnc1SCC(=O)Nc1ccc(C(C)(C)C)cc1` [Compound 164, N-(4-tert-Butyl-phenyl)-2-(4-methyl-4H-[1,2,4]triazol-3-ylsulfanyl)-acetamide, reference compound], the IC50 at Human NPY5 Receptor was 1.6 µM; on Rat NPY5 Receptor, 1.7 µM; at Human NPY1 Receptor, > 5 µM; on Human NPY4/PP1 receptor, > 5 µM.

`COC(Cn1c(SCC(=O)Nc2ccc(C(C)C)cc2)nnc1-c1ccc(Cl)cc1)OC` [Compound 166, 2-[5-(4-Chloro-phenyl)-4-(2,2-dimethoxy-ethyl)-4H-[1,2,4]triazol-3-ylsulfanyl]-N-(4-isopropyl-phenyl)-acetamide, reference compound]: the IC50 on Human NPY5 Receptor was > 10 µM; on Rat NPY5 Receptor, > 10 µM; at Human NPY1 Receptor, > 5 µM; at Human NPY4/PP1 receptor it was > 5 µM.

`COC(Cn1c(SCC(=O)Nc2ccc(Cl)cc2)nnc1-c1ccccc1)OC` [Compound 162, N-(4-Chloro-phenyl)-2-(4-(2,2-dimethoxy-ethyl)-5-phenyl-4H-[1,2,4]triazol-3-ylsulfanyl]-acetamide, reference compound]: the IC50 is > 10 µM at Human NPY5 Receptor, > 10 µM at Rat NPY5 Receptor, > 5 µM at Human NPY1 Receptor and > 5 µM on Human NPY4/PP1 receptor.

Consider `Cn1ccnc1SCC(=O)Nc1ccc(C(=O)c2ccccc2)cc1` [Compound 9], for which the IC50 was > 5 µM on Human NPY2 receptor and 0.44 µM on Human NPY5 Receptor. For the same compound, the inhibition at 10 µM at Rat NPY5 Receptor is 93%.

In the case of `Cc1ccnc(SCC(=O)Nc2ccc(C3CCCCC3)cc2)n1` [Compound 5, N-(4-Cyclohexyl-phenyl)-2-(4-methyl-pyrimidin-2-ylsultanyl)-acetamide Hydrochloride], the figures for the 50% inhibitory concentration (IC50) on Human NPY2 receptor, on Rat NPY5 Receptor and on Human NPY4/PP1 receptor were > 5 µM, > 1 µM and > 5 µM, respectively.

Regarding `CC(C)n1c(SCC(=O)Nc2ccc(Cl)cc2)nc2cc(C(F)(F)F)ccc21` [Compound 180, N-(4-Chloro-phenyl]-2-(1-isopropyl-5-trifluoromethy-1H-benzolmidazol-2-ylsulfanyl)-acetamide, reference compound], the half-maximal inhibitory concentration (IC50) on Human NPY2 receptor was > 5 µM; at Human NPY5 Receptor it was > 10 µM; on Human NPY4/PP1 receptor, > 5 µM.

Regarding `O=C(CSc1nc2ccccc2[nH]1)Nc1ccc(C2CCCCC2)cc1` [Compound 11, 2-(1H-Benzoimidazol-2-ylsulfanyl)-N-(4-cyclohexyl-phenyl)-acetamide], the results for the 50% inhibitory concentration (IC50) on Human NPY2 receptor and on Human NPY5 Receptor were > 5 µM and 0.5 µM, respectively. In addition, the inhibition at 10 µM at Rat NPY5 Receptor turned out to be 95%.

In the case of `O=C(CSc1ncc[nH]1)Nc1ccc(C2CCCCC2)cc1` [Compound 136, N-(4-Cyclohexyl-phenyl)-2-(1H-imidazol-2-ylsulfanyl)-acetamide], the IC50 is > 5 µM at Human NPY2 receptor and 0.11 µM at Human NPY5 Receptor. For the same compound, at Rat NPY5 Receptor, the inhibition at 10 µM was 95%.

As for `Nc1nc(O)c2[nH]c(SCC(=O)Nc3ccc(C(=O)c4ccccc4)cc3)nc2n1` [Compound 14, 2-(2-Amino-hydroxy-9H-purin-ylsulfanyl)-N-(4-benzoyl-phenyl)-acetamide], the IC50 at Human NPY2 receptor was > 5 µM; on Human NPY5 Receptor, > 10 µM. Besides, the inhibition at 10 µM at Rat NPY5 Receptor turned out to be 51%.

Regarding `Nc1nc(O)c2[nH]c(SCC(=O)Nc3ccc(C4CCCCC4)cc3)nc2n1` [Compound 13, 2-(2-Amino-hydroxy-9H-purin-8-ylsuIfanyl)-N-(4-yclohexyl-phenyl)-acetamide], the IC50 at Human NPY2 receptor is > 5 µM; at Human NPY5 Receptor it was 5.6 µM. The inhibition at 10 µM at Rat NPY5 Receptor came to 71%.

On to `CCCCCCCCCCCc1nnc(SCC(=O)Nc2ccc(C(C)C)cc2)n1-c1ccccc1C(F)(F)F` [Compound 179, reference compound], for which the IC50 is > 5 µM at Human NPY2 receptor, > 10 µM on Human NPY5 Receptor and > 5 µM at Human NPY4/PP1 receptor.

`CCCCCn1c(O)nnc1SCC(=O)Nc1ccc(Cl)cc1` [Compound 181, N-(4-Chloro-phenyl)-2-(5-hydroxy-4-pentyl-4H-[1,2,4]triazo-3-ylsulfanyl)-acetamide, reference compound]: the half-inhibitory concentration (IC50) at Human NPY2 receptor was > 5 µM; at Human NPY5 Receptor, > 10 µM; at Human NPY4/PP1 receptor, > 5 µM.

Turning to `Cc1ccc(SCC(=O)Nc2ccc(C3CCCCC3)cc2)cc1` [Compound 183, reference compound], the IC50 is > 5 µM on Human NPY2 receptor, 1.3 µM at Human NPY5 Receptor, 1.2 µM on Rat NPY5 Receptor and > 5 µM at Human NPY4/PP1 receptor.

Consider `Cc1cc(-c2nc(C)c(-c3nnc(SCC(=O)Nc4ccc(C(C)C)cc4)n3C)s2)no1` [Compound 177, N-(4-isopropyl-phenyl)-2-(4-methyl-5-[4-methyl-2-(5-methyl-isoxazol-3-yl)-thiazol-5-yl]-4H-[1,2,4]-triazol-3-ylsulfanyl]-acetamide, reference compound], for which the IC50 was > 5 µM on Human NPY2 receptor, > 10 µM on Human NPY5 Receptor and > 5 µM at Human NPY4/PP1 receptor.

Turning to `O=C(CSc1nc(-c2ccccc2)c(-c2ccccc2)[nH]1)Nc1ccc(C2CCCCC2)cc1` [Compound 15, N-(4-Cyclohexyl-phenyl)-2-(4,5-diphenyl-1H-imidazol-2-ylsulfanyl)-acetamide], the 50% inhibitory concentration (IC50) at Human NPY2 receptor is > 5 µM; on Human NPY5 Receptor, 9.8 µM. For the same compound, on Rat NPY5 Receptor, the inhibition at 10 µM amounted to 66%.

Consider `O=C(CSc1nc2ccccc2[nH]1)Nc1ccc(C(=O)c2ccccc2)cc1` [Compound 12, 2-(1H-Benzoimidazol-2-ylsulfanyl)-N-(4-benzoyl-phenyl)-acetamide], for which the values for the concentration for half-maximal inhibition (IC50) on Human NPY2 receptor and on Human NPY5 Receptor were > 5 µM and 0.48 µM, respectively. Besides, on Rat NPY5 Receptor, the inhibition at 10 µM was found to be 95%.
